{
  "source": "patent US20210309631A1",
  "about": "“SALT OF CYCLOHEXANE DERIVATIVE” (priority 2018, published 2021)",
  "key": {"[1]": {"assay": "In vivo individual difference analysis: individual plasma concentration versus time in rats (Example 8)", "parameters": "species or system SD rats", "conditions": "intragastric 1 mg/kg, listed as Sulfate of Compound of Formula I", "protocol": "Compound of Formula I and salts thereof (sulfate, hydrochloride salt, phosphate, maleate), supplied by Shanghai Jingxin Biopharmaceutical Co., Ltd. • Strain: SD rats; Gender: male; Body weight: about 250 grams; Source: shanghai Jiesijie Experimental Animal Co., Ltd Route: single intragastric administration; Capacity: measured in 10 mL/kg body weight Preparation: weighing appropriate amount of the free base or salt of the compound of Formula I, adding a small amount of 0.5% CMC-Na to grind, adding 0.5% CMC-Na to the volume. The concentration is measured as the base. 20 SD rats were divided into 5 groups with 4 rats in each group, fasted for 12 h and drank freely before administration. […] The blood was anticoagulated with 1% heparin, the plasma was separated by 8000 rpm centrifugation for 4 min and stored at -40° C. for testing. LC-MS/MS Method. Pharmacokinetic parameters after administration in rats were calculated using a non-compartmental model of DAS 2.0 software."}, "[2]": {"assay": "Plasma pharmacokinetics in SD rats after single intragastric administration (Example 7)", "assay_type": "in vivo", "conditions": "intragastric 1 mg/kg, Mean ± SD, non-compartmental model, listed as Sulfate", "protocol": "The in vivo absorption process and characteristics of the free base and four salts thereof (sulfate, hydrochloride salt, phosphate, maleate) of compound (I) in rats were studied. The pharmacokinetics of a single intragastric administration of 1 mg/kg of a compound of Formula I and four salts thereof (calculated by free base concentration in salt form) were studied in SD rats.\nSD rats were given a single intragastric administration of 1 mg/kg free base of Example 1 and four salts thereof (including hydrochloride salt from Example 2, sulfate from Example 3, phosphate from Example 4 and maleate from Example 5). There were 4 male rats in each group. The concentration of the compound of Formula I in plasma was determined, and the pharmacokinetic parameters were calculated according to the concentration-time curve."}, "[3]": {"assay": "Hygroscopicity (DVS) experiment, 25° C./80% relative humidity", "assay_type": "physicochemical", "protocol": "Dynamic vapor sorption curves were collected on a DVS Intrinsic by SMS (Surface Measurement Systems).\n20 mg sample of the crystal forms of the Examples and Comparative Examples are placed in the environment of 25° C./80% relative humidity for a dynamic vapor sorption (DVS) test, and the test results […] are shown in Table 5."}, "[4]": {"assay": "solubility in water", "assay_type": "physicochemical", "conditions": "listed as sulfate Form A"}, "[5]": {"conditions": "DVS, 25° C./80% relative humidity, listed as Example 3 sulfate"}},
  "data": [
    {"compound": "CN(C)C(=O)N[C@H]1CC[C@H](CCN2CCN(c3cccc4ccsc34)CC2)CC1", "note": "[Example 3, N′-[trans-4-[2-[7-(benzo[b]thiophene)-7-piperazinyl]ethyl]cyclohexyl]-N,N-dimethylurea]", "values": [
      {"measurement": "Plasma Concentrations of Compound of Formula I", "setting": "[1]; 5 min after administration, Mean ± SD", "result": "2.25 ± 0.476", "unit": "ng/mL"},
      {"measurement": "Plasma Concentrations of Compound of Formula I", "setting": "[1]; 5 min after administration, rat 1♂", "result": 1.54, "unit": "ng/mL"},
      {"measurement": "Plasma Concentrations of Compound of Formula I", "setting": "[1]; 5 min after administration, rat 2♂", "result": 2.41, "unit": "ng/mL"},
      {"measurement": "Plasma Concentrations of Compound of Formula I", "setting": "[1]; 5 min after administration, rat 3♂", "result": 2.56, "unit": "ng/mL"},
      {"measurement": "Plasma Concentrations of Compound of Formula I", "setting": "[1]; 5 min after administration, rat 4♂", "result": 2.48, "unit": "ng/mL"},
      {"measurement": "Plasma Concentrations of Compound of Formula I", "setting": "[1]; 0.167 h after administration, Mean ± SD", "result": "21.7 ± 2.45", "unit": "ng/mL"},
      {"measurement": "Plasma Concentrations of Compound of Formula I", "setting": "[1]; 0.167 h after administration, rat 1♂", "result": 24.0, "unit": "ng/mL"},
      {"measurement": "Plasma Concentrations of Compound of Formula I", "setting": "[1]; 0.167 h after administration, rat 2♂", "result": 18.4, "unit": "ng/mL"},
      {"measurement": "Plasma Concentrations of Compound of Formula I", "setting": "[1]; 0.167 h after administration, rat 3♂", "result": 23.0, "unit": "ng/mL"},
      {"measurement": "Plasma Concentrations of Compound of Formula I", "setting": "[1]; 0.167 h after administration, rat 4♂", "result": 21.3, "unit": "ng/mL"},
      {"measurement": "Plasma Concentrations of Compound of Formula I", "setting": "[1]; 0.333 h after administration, Mean ± SD", "result": "51.2 ± 2.32", "unit": "ng/mL"},
      {"measurement": "Plasma Concentrations of Compound of Formula I", "setting": "[1]; 0.333 h after administration, rat 1♂", "result": 50.4, "unit": "ng/mL"},
      {"measurement": "Plasma Concentrations of Compound of Formula I", "setting": "[1]; 0.333 h after administration, rat 2♂", "result": 54.4, "unit": "ng/mL"},
      {"measurement": "Plasma Concentrations of Compound of Formula I", "setting": "[1]; 0.333 h after administration, rat 3♂", "result": 51.0, "unit": "ng/mL"},
      {"measurement": "Plasma Concentrations of Compound of Formula I", "setting": "[1]; 0.333 h after administration, rat 4♂", "result": 48.9, "unit": "ng/mL"},
      {"measurement": "Plasma Concentrations of Compound of Formula I", "setting": "[1]; 0.5 h after administration, Mean ± SD", "result": "49.9 ± 10.4", "unit": "ng/mL"},
      {"measurement": "Plasma Concentrations of Compound of Formula I", "setting": "[1]; 0.5 h after administration, rat 1♂", "result": 56.0, "unit": "ng/mL"},
      {"measurement": "Plasma Concentrations of Compound of Formula I", "setting": "[1]; 0.5 h after administration, rat 2♂", "result": 36.0, "unit": "ng/mL"},
      {"measurement": "Plasma Concentrations of Compound of Formula I", "setting": "[1]; 0.5 h after administration, rat 3♂", "result": 48.0, "unit": "ng/mL"},
      {"measurement": "Plasma Concentrations of Compound of Formula I", "setting": "[1]; 0.5 h after administration, rat 4♂", "result": 59.4, "unit": "ng/mL"},
      {"measurement": "Plasma Concentrations of Compound of Formula I", "setting": "[1]; 1 h after administration, Mean ± SD", "result": "39.2 ± 6.84", "unit": "ng/mL"},
      {"measurement": "Plasma Concentrations of Compound of Formula I", "setting": "[1]; 1 h after administration, rat 1♂", "result": 42.6, "unit": "ng/mL"},
      {"measurement": "Plasma Concentrations of Compound of Formula I", "setting": "[1]; 1 h after administration, rat 2♂", "result": 30.0, "unit": "ng/mL"},
      {"measurement": "Plasma Concentrations of Compound of Formula I", "setting": "[1]; 1 h after administration, rat 3♂", "result": 38.5, "unit": "ng/mL"},
      {"measurement": "Plasma Concentrations of Compound of Formula I", "setting": "[1]; 1 h after administration, rat 4♂", "result": 45.8, "unit": "ng/mL"},
      {"measurement": "Plasma Concentrations of Compound of Formula I", "setting": "[1]; 2 h after administration, Mean ± SD", "result": "23.2 ± 7.54", "unit": "ng/mL"},
      {"measurement": "Plasma Concentrations of Compound of Formula I", "setting": "[1]; 2 h after administration, rat 1♂", "result": 32.7, "unit": "ng/mL"},
      {"measurement": "Plasma Concentrations of Compound of Formula I", "setting": "[1]; 2 h after administration, rat 2♂", "result": 14.5, "unit": "ng/mL"},
      {"measurement": "Plasma Concentrations of Compound of Formula I", "setting": "[1]; 2 h after administration, rat 3♂", "result": 24.1, "unit": "ng/mL"},
      {"measurement": "Plasma Concentrations of Compound of Formula I", "setting": "[1]; 2 h after administration, rat 4♂", "result": 21.3, "unit": "ng/mL"},
      {"measurement": "Plasma Concentrations of Compound of Formula I", "setting": "[1]; 4 h after administration, Mean ± SD", "result": "7.92 ± 3.01", "unit": "ng/mL"},
      {"measurement": "Plasma Concentrations of Compound of Formula I", "setting": "[1]; 4 h after administration, rat 1♂", "result": 10.3, "unit": "ng/mL"},
      {"measurement": "Plasma Concentrations of Compound of Formula I", "setting": "[1]; 4 h after administration, rat 2♂", "result": 4.31, "unit": "ng/mL"},
      {"measurement": "Plasma Concentrations of Compound of Formula I", "setting": "[1]; 4 h after administration, rat 3♂", "result": 10.5, "unit": "ng/mL"},
      {"measurement": "Plasma Concentrations of Compound of Formula I", "setting": "[1]; 4 h after administration, rat 4♂", "result": 6.57, "unit": "ng/mL"},
      {"measurement": "Plasma Concentrations of Compound of Formula I", "setting": "[1]; 6 h after administration, Mean ± SD", "result": "2.87 ± 1.10", "unit": "ng/mL"},
      {"measurement": "Plasma Concentrations of Compound of Formula I", "setting": "[1]; 6 h after administration, rat 1♂", "result": 3.08, "unit": "ng/mL"},
      {"measurement": "Plasma Concentrations of Compound of Formula I", "setting": "[1]; 6 h after administration, rat 2♂", "result": 1.35, "unit": "ng/mL"},
      {"measurement": "Plasma Concentrations of Compound of Formula I", "setting": "[1]; 6 h after administration, rat 3♂", "result": 3.99, "unit": "ng/mL"},
      {"measurement": "Plasma Concentrations of Compound of Formula I", "setting": "[1]; 6 h after administration, rat 4♂", "result": 3.05, "unit": "ng/mL"},
      {"measurement": "Plasma Concentrations of Compound of Formula I", "setting": "[1]; 9 h after administration, Mean ± SD", "result": "1.15 ± 0.444", "unit": "ng/mL"},
      {"measurement": "Plasma Concentrations of Compound of Formula I", "setting": "[1]; 9 h after administration, rat 1♂", "result": 1.30, "unit": "ng/mL"},
      {"measurement": "Plasma Concentrations of Compound of Formula I", "setting": "[1]; 9 h after administration, rat 2♂", "result": 0.643, "unit": "ng/mL"},
      {"measurement": "Plasma Concentrations of Compound of Formula I", "setting": "[1]; 9 h after administration, rat 3♂", "result": 1.68, "unit": "ng/mL"},
      {"measurement": "Plasma Concentrations of Compound of Formula I", "setting": "[1]; 9 h after administration, rat 4♂", "result": 0.973, "unit": "ng/mL"},
      {"measurement": "Plasma Concentrations of Compound of Formula I", "setting": "[1]; 12 h after administration, Mean ± SD", "result": "0.606 ± 0.221", "unit": "ng/mL"},
      {"measurement": "Plasma Concentrations of Compound of Formula I", "setting": "[1]; 12 h after administration, rat 1♂", "result": 0.718, "unit": "ng/mL"},
      {"measurement": "Plasma Concentrations of Compound of Formula I", "setting": "[1]; 12 h after administration, rat 2♂", "result": 0.317, "unit": "ng/mL"},
      {"measurement": "Plasma Concentrations of Compound of Formula I", "setting": "[1]; 12 h after administration, rat 3♂", "result": 0.827, "unit": "ng/mL"},
      {"measurement": "Plasma Concentrations of Compound of Formula I", "setting": "[1]; 12 h after administration, rat 4♂", "result": 0.561, "unit": "ng/mL"},
      {"measurement": "Plasma Concentrations of Compound of Formula I", "setting": "[1]; 24 h after administration, Mean ± SD", "result": "0.244 ± 0.161", "unit": "ng/mL"},
      {"measurement": "Plasma Concentrations of Compound of Formula I", "setting": "[1]; 24 h after administration, rat 1♂", "result": 0.213, "unit": "ng/mL"},
      {"measurement": "Plasma Concentrations of Compound of Formula I", "setting": "[1]; 24 h after administration, rat 2♂", "result": 0.135, "unit": "ng/mL"},
      {"measurement": "Plasma Concentrations of Compound of Formula I", "setting": "[1]; 24 h after administration, rat 3♂", "result": 0.148, "unit": "ng/mL"},
      {"measurement": "Plasma Concentrations of Compound of Formula I", "setting": "[1]; 24 h after administration, rat 4♂", "result": 0.479, "unit": "ng/mL"},
      {"measurement": "MRT0-∞", "setting": "[2]", "result": "2.87 ± 0.283", "unit": "h"},
      {"measurement": "Tmax", "setting": "[2]", "result": "0.417 ± 0.096", "unit": "h"},
      {"measurement": "t1/2", "setting": "[2]", "result": "2.67 ± 0.267", "unit": "h"},
      {"measurement": "Hygroscopicity", "setting": "[3]; [5]", "result": "Slight"},
      {"measurement": "Vapor sorption", "setting": "[3]; [5]", "result": 0.23, "unit": "%"},
      {"measurement": "The crystal form changes after DVS testing or not", "setting": "[3]; after DVS testing", "result": "No"},
      {"measurement": "solubility in water", "setting": "[4]", "result": "greater than 8.0 mg/ml"}
    ]}
  ]
}
